Data published in patent publication US7410757B1, “Method of screening disease depressant gene” (Keio University, priority 1999, dated 2008).
Entries after “also recorded” stand apart in the source; their conditions may differ. No end group written: not given here.

What was measured:
F11 cells [1] = assay: F11 cell death induced by transfection of FAD genes, trypan blue exclusion assay; type: cell-based
Experimental: (§1) F11 cells (Platika, D. et al. (1985) Proc. Natl. Acad. Sci. U.S.A. 82, 3499-3503; Yamatsuji, T. et al. (1996) Science 272, 1349-1352) were cultured in HamF-12 media containing 18% fetal bovine serum (FBS) and antibiotics. 7×10^4/well of F11 cells were seeded into a 6-well plate; cultured in HamF-12 containing 18% FBS for 12 to 16 hours; transfected 3 hours with plasmids encoding FAD genes and plasmids encoding HN (pHN, and such) by lipofection in the absence of serum (1 μg of FAD cDNA expression plasmid, 1 μg of HN cDNA expression plasmid, 4 μl of LipofectAMINE, 8 μl of Plus reagent); and then, were cultured for 2 hours in HamF-12 media containing 18% FBS. Then, culture media were exchanged with HamF-12 media containing 10% FBS; and the cells were cultured for additional 67 hours. 72 hours after transfection, cell death was measured by trypan blue exclusion assay. Experiments using synthetic HN polypeptides were conducted as follows: F11 cells (at 7×10^4/well in a 6-well plate) were transfected 3 hours with FAD genes in the absence of serum, as mentioned above; after cultivation for 2 hours in HamF-12 media containing 18% FBS, the cells were cultured for 67 hours in HamF-12 media containing 10% FBS with various concentrations of HN polypeptides; and cell death was measured by trypan blue exclusion assay. ALS-associated mutant cDNAs of SOD1 were also similarly transfected, and examined for their neurotoxicity.
(§2) Trypan blue exclusion assay was performed as follows. Without prewashing, the cells were suspended with gentle pipetting into a serum-free media. 50 μl of 0.4% trypan blue solution (Sigma, Cat. #T-8154) were added (final concentration of 0.08%) to 200 μl cell suspension, and the suspension was mixed at room temperature. Within 3 minutes of the trypan blue solution addition, stained cells were counted. Cell mortality was determined [100−cell survival rate (%)] based on the stained cell count. LDH assay was performed using a kit (LDH-Cytotoxic Test; Wako Pure Chemical Industries, Cat. #299-50601) by sampling 6 μl of media in which neurons were cultured. Calcein staining was performed as described in literature (Bozyczko-Coyne, D. et al. (1993) Journal of Neuroscience Methods 50, 205-216). Specifically, 6 μM Calcein-AM {3′,6′-Di-(O-acetyl)-2′,7′-bis[N,N-bis(carboxymethyl)aminomethyl]fluorescein, tetraacetoxymethyl ester; Dojindo, Cat. #349-07201} was added to the neurons; and 30 minutes or longer after Calcein-AM treatment, fluorescence (ex=490 nm, em=515 nm) was observed by fluorescence microscopy, and measured by a spectrometer. Specific fluorescence was calculated by subtracting basal fluorescence from total fluorescence. Basal fluorescence was assigned to be the value calculated from linear trypan blue positivity-fluorescence intensity relationship, corresponding to 100% trypan blue positivity.

F11/EcR cells [2] = assay: F11/EcR cell death caused by ecdysone-induced expression of FAD genes, trypan blue exclusion assay; type: cell-based; details: treated with 1M sHN (so in the source); NL-APP, V642I APP, M146L PS-1 or N141I PS-2; ecdysone 72 h
Experimental: F11/EcR cell experiment using ecdysone was conducted as follows: F11/EcR cells were seeded at 7×10^4/well into a 6-well plate; cultured for 12 to 16 hours in HamF-12 media containing 18% FBS; and were similarly transfected in the absence of serum for 3 hours with 1 μg of ecdysone-inducible plasmid alone, or with 1 μg of HN-encoding plasmid, as mentioned above. After culturing for 12 to 16 hours in HamF-12 media containing 18% FBS, the cells were cultured for 2 hours in HamF-12 media containing 10% FBS, then ecdysone (Ponasterone) was added to the media (final concentration of 40 μM). Cell death was measured 72 hours after ecdysone treatment. […] Cell death was measured by trypan blue exclusion assay after 72 hours from the ecdysone treatment. […]
(§3) Trypan blue exclusion assay was performed as follows. […] Within 3 minutes of the trypan blue solution addition, stained cells were counted. Cell mortality was determined [100−cell survival rate (%)] based on the stained cell count. […] Specifically, 6 μM Calcein-AM {3′,6′-Di-(O-acetyl)-2′,7′-bis[N,N-bis(carboxymethyl)aminomethyl]fluorescein, tetraacetoxymethyl ester; Dojindo, Cat. #349-07201} was added to the neurons; and 30 minutes or longer after Calcein-AM treatment, fluorescence (ex=490 nm, em=515 nm) was observed by fluorescence microscopy, and measured by a spectrometer. […]

F11/EcR cells [3] = assay: F11/EcR cell death caused by ecdysone-induced expression of polyglutamine Q79, trypan blue exclusion assay; type: cell-based; details: 1 μM polypeptide, ecdysone 72 h
Experimental: F11/EcR cell experiment using ecdysone was conducted as follows: F11/EcR cells were seeded at 7×10^4/well into a 6-well plate; cultured for 12 to 16 hours in HamF-12 media containing 18% FBS; and were similarly transfected in the absence of serum for 3 hours with 1 μg of ecdysone-inducible plasmid alone, or with 1 μg of HN-encoding plasmid, as mentioned above. After culturing for 12 to 16 hours in HamF-12 media containing 18% FBS, the cells were cultured for 2 hours in HamF-12 media containing 10% FBS, then ecdysone (Ponasterone) was added to the media (final concentration of 40 μM). Cell death was measured 72 hours after ecdysone treatment. Experiments using synthetic HN polypeptides were conducted as follows: cells were similarly transfected for 3 hours with FAD genes in the absence of serum; cultured for 12 to 16 hours in HamF-12 media containing 18% FBS; cultured for 2 hours in HamF-12 media containing 10% FBS and various concentrations of HN polypeptide; and then, 40 μM Ponasterone was added to the media. Cell death was measured by trypan blue exclusion assay after 72 hours from the ecdysone treatment. HD/SCA-associated Q79 cDNAs were also similarly transfected, and the neurotoxicity was tested.
Trypan blue exclusion assay was performed as follows. […] Within 3 minutes of the trypan blue solution addition, stained cells were counted. Cell mortality was determined [100−cell survival rate (%)] based on the stained cell count. […] Specifically, 6 μM Calcein-AM {3′,6′-Di-(O-acetyl)-2′,7′-bis[N,N-bis(carboxymethyl)aminomethyl]fluorescein, tetraacetoxymethyl ester; Dojindo, Cat. #349-07201} was added to the neurons; and 30 minutes or longer after Calcein-AM treatment, fluorescence (ex=490 nm, em=515 nm) was observed by fluorescence microscopy, and measured by a spectrometer. Specific fluorescence was calculated by subtracting basal fluorescence from total fluorescence. Basal fluorescence was assigned to be the value calculated from linear trypan blue positivity-fluorescence intensity relationship, corresponding to 100% trypan blue positivity.

F11 cells [4] = assay: F11 cell death induced by ALS-associated SOD1 mutants (A4T, G85R, G93A), trypan blue exclusion assay; type: cell-based; details: 100 μM polypeptide, G85R or G93A SOD1
Experimental: as §1
as §3, with “spectrometer. Specific fluorescence was calculated by subtracting basal fluorescence from total fluorescence.” for “spectrometer.”

[5] = test system: primary cultured cortical neurons; assay: Aβ1-43-induced cell death of primary cultured cortical neurons (trypan blue, LDH release, Calcein-AM, morphology); type: cell-based, mouse; details: for effect on Aβ-induced cell death and dystrophic neuritic changes of the axon: 25 μM Aβ1-43, 72 h
Experimental: Primary culture of mouse cortical neurons was performed in poly-D-lysine-coated 24-well plates (Sumitomo Bakelite) in the absence of serum and in the presence of N2 supplement, as described in literature (Eksioglu, Y. Z. et al. (1994) Brain Res. 644, 282-90). The purity of neurons prepared according to the method was >98%. The prepared neurons (1.25×10^5/well, 250 μl media/well) were preincubated in the absence or presence of 10 nM or 10 μM sHN polypeptides for 16 hours; and were treated with 25 μM Aβ1-43 in the absence or presence of sHN polypeptides at the same concentrations for 24 to 72 hours. Since primary cultured neurons are damaged even by temporary dryness during medium exchange, treatment of the cells by Aβ1-43 was performed as follows. First, half of the volume of the old medium (125 μl) was discarded. Then, 125 μl of pre-warmed fresh medium containing 50 μM Aβ1-43 and sHN with a concentration indicated above were added to the culture.
as §2

primary cultured neurons = assay: Etoposide-induced cell death of primary cultured neurons (trypan blue, LDH release); type: cell-based, mouse; details: 10 μM polypeptide, 20 μM etoposide, 72 h
Experimental: 25 μM Aβ1-43 was added to primary cultured cortical neurons in the presence (at indicated concentrations) or absence of sHN, sHNG, or sHNA. Addition of HN polypeptides was performed similarly to that described in FIG. 12. 72 hours after the initiation of Aβ treatment, cell death was measured by trypan blue exclusion assay. Primary cultured neurons treated similarly for 72 hours with 20 μM etoposide in the presence or absence of 10 μM sHN or HN derivatives were used as the positive controls in these experiments. Similar experiments were performed at least three times, and reproducible results were obtained. Mean ±S.D. values of three independent experiments are indicated in the graphs.
Cell damage was monitored as the amount of LDH released into the culture media. […] 24, 48, or 72 hours after the initiation of Aβ treatment, the amount of LDH in the culture media was measured. LDH release from neurons treated with 20 μM etoposide in the presence or absence of HN polypeptides was also measured. […]
Trypan blue exclusion assay was performed as follows. […] Within 3 minutes of the trypan blue solution addition, stained cells were counted. Cell mortality was determined [100−cell survival rate (%)] based on the stained cell count. […] Specific fluorescence was calculated by subtracting basal fluorescence from total fluorescence. […]

[6] = 10 μM polypeptide, 25 μM Aβ1-43

## CC[C@H](C)[C@H](NC(=O)[C@H](CCC(=O)O)NC(=O)[C@H](CO)NC(=O)[C@@H](NC(=O)[C@H](CC(C)C)NC(=O)[C@H](CC(C)C)NC(=O)[C@H](CC(C)C)NC(=O)[C@H](CC(C)C)NC(=O)[C@H](CS)NC(=O)[C@H](CO)NC(=O)[C@H](Cc1ccccc1)NC(=O)CNC(=O)[C@H](CCCNC(=N)N)NC(=O)[C@@H]1CCCN1C(=O)[C@H](C)NC(=O)[C@@H](N)CCSC)[C@@H](C)O)C(=O)N[C@@H](CC(=O)O)C(=O)N[C@@H](CC(C)C)C(=O)N1CCC[C@H]1C(=O)N[C@H](C(=O)N[C@@H](CCCCN)C(=O)N[C@@H](CCCNC(=N)N)C(=O)N[C@@H](CCCNC(=N)N)C(=O)N[C@@H](C)C(=O)O)C(C)C [sHN]
F11 cells [1]; 10 nM polypeptide, 72 h
  suppression of cell death induced by V642I APP: extremely weak suppression
F11 cells [1]; 10 μM polypeptide, 72 h
  suppression of cell death induced by V642I APP: dramatically suppressed
F11 cells [1]; 72 h
  concentration achieving complete suppression of cell death induced by V642I APP: 1 to 10 µM
F11 cells [1]; any of the three FAD genes, 72 h
  concentration blocking neuronal death induced by NL-APP, M146L PS-1 and N141I PS-2: 1 µM
F11/EcR cells [2]
  effect of synthetic polypeptide on cell death caused by ecdysone-induced expression of FAD genes: complete suppression; also recorded: significant suppressive effect
F11/EcR cells [3]
  effect of synthetic polypeptide on neuronal death induced by Q79: not suppressed; also recorded: lack of effects
F11 cells [4]
  effect of synthetic polypeptide on neuronal death induced by SOD1 mutants: couldn't be suppressed; also recorded: lack of the effect
[5]; 10 nM polypeptide
  effect on Aβ-induced cell death and dystrophic neuritic changes of the axon: did not show any effect
[5]; [6]
  cell damage (LDH released from the cells) after Aβ1-43 treatment: completely restored to a level observed under basal conditions
  cell death (trypan blue exclusion) after Aβ1-43 treatment: completely restored to a level observed under basal conditions
[5]; 10 μM polypeptide
  effect on Aβ-induced cell death and dystrophic neuritic changes of the axon: dramatically suppressed
Primary cultured neurons
  prevention of the toxic effect of etoposide on primary cultured neurons: could not prevent

## MAPRGFSALLLLTSEIDLPVKRRA [sHNA]
F11 cells [1]; concentrations up to 100 μM
  suppression of cell death induced by V642I APP: did not significantly suppress
F11 cells [1]; up to a concentration of 100 μM
  antagonism of cell death by NL-APP, M146L PS-1 and N141I PS-2: did not antagonize
F11/EcR cells [3]
  effect of synthetic polypeptide on neuronal death induced by Q79: Extensive cell death; also recorded: lack of effects
F11 cells [4]
  effect of synthetic polypeptide on neuronal death induced by SOD1 mutants: couldn't be suppressed; also recorded: lack of the effect
[5]; 10 μM polypeptide
  effect on Aβ-induced cell death and dystrophic neuritic changes of the axon: did not show any effect

## MAPRGFSCLLLLTGEIDLPVKRRA [sHNG]
F11 cells [1]; 72 h
  concentration giving complete antagonizing effect on cell death induced by V642I APP: ≤ 10 nM
F11 cells [1]; V642I APP, NL-APP, M146L PS-1, N141I PS-2
  concentration completely antagonizing neuronal death induced by all of the four different types of FAD genes: ≤ 10 nM
F11 cells [1]; any of the FAD genes, 72 h
  concentration completely suppressing cell death caused by NL-APP, M146L PS-1 and N141I PS-2: ≤ 10 nM
F11 cells [1]; relative to original HN
  enhancement of the action of HN by S14G substitution: 100 to 1000 fold
F11/EcR cells [2]
  effect of synthetic polypeptide on cell death caused by ecdysone-induced expression of FAD genes: complete suppression
F11/EcR cells [3]
  effect of synthetic polypeptide on neuronal death induced by Q79: Extensive cell death; also recorded: lack of effects
F11 cells [4]
  effect of synthetic polypeptide on neuronal death induced by SOD1 mutants: couldn't be suppressed; also recorded: lack of the effect
[5]; 10 nM polypeptide
  effect on Aβ-induced cell death and dystrophic neuritic changes of the axon: completely protected

## NGF: NGF tested at 100 ng/ml as comparator [reference compound]
[5]; 100 ng/ml, data not shown
  antagonism of cell death of neurons induced by Aβ: did not show effects to antagonize
  antagonism of increased LDH release induced by Aβ: did not show effects to antagonize
